Laboratory results taken from patent US5606037A, “Processes antineoplastic heteronaphthoquinones” (BioChem Pharma Inc., priority 1995, dated 1997).
Where a name gives a salt, the structure may show the parent alone.

Assays:
Assay type in all cases: cell-based, Human
[1] = tested on: T47D (Ductal carcinoma of breast); test: In vitro cytotoxicity, microculture tetrazolium (MTT) assay, T47D; conditions: 48 h with compound, further 48 h, Table 1
Protocol: (§1) The microculture tetrazolium assay was used to test in vitro cytotoxicity. This assay is described in Plumb, J. A. et al., 1989 Cancer Research 49, 4435-4440, which is herein incorporated by reference. The cytotoxicity of compounds towards tumor cells is measured in vitro using the assay. This assay method is based upon the ability of live, but not dead cells to reduce the yellow water soluble dye 3-(4,5-dimethylthiazol-2-yl)-2,5-diphenyltetrazolium bromide (MTT) to its water insoluble purple formazan product.
(§2) Human Tumor Cell lines, used were:
T47D (Ductal carcinoma of breast)--ATCC catalog #HTB-133.
(§3) The cells were maintained in exponential growth in culture in minimal essential media (MEM) supplemented with non-essential amino acids, and containing 15% (v/v) fetal. bovine serum, 5 mM L-glutamine, 1 mM sodium pyruvate, and 0.1 U/ml insulin. All cell lines were grown at 37° C. in an atmosphere of 5% CO2 in air.
(§4) MTT: 2 mg/ml in phosphate buffered saline (stable at 4° C. in dark for 1 week).
(§5) Sorensen's buffer: 0.1M glycine/NaOH, pH 10.5, containing 0.1M NaCl.
(§6) Test compounds: 20 mM in DMSO and diluted to a final concentration of 200 μM in culture medium before use.
(§7) For each assay, doxorubicin is included as an inter-assay standard. This allows us to monitor the behaviour of the assay in general, and in particular, to check that the SKVLB line has maintained its resistant phenotype.
(§8) The assays are carried out in 96-well (8 well×12 well) microtiter plates. Serial dilutions of the compound are tested along the length of the plate. A 1:3 serial dilution of compound in culture medium covers a concentration range from 100 μM to 1.7 nM. Each concentration of compound is tested in quadruplet, allowing two compounds to be tested per plate. Wells containing no cells (blank) and cells with no test compound (control) are included on each plate.
(§9) Cells are plated out in 100 μl of culture medium in the microtiter plates at a density of around 1,500-4,000 cells per well. The plates are incubated overnight to allow the cells to become adherent after which the test compound is added (100 μl of appropriate dilution per well). The cells are incubated with test compound at 37° C. for 48 h after which the compound is replaced with fresh medium. After a further 48 h incubation at 37° C., 50 μl of MTT solution (2 mg/ml) is added to each well. The plates are incubated in the dark for 4 h at 37° C. after which the medium is removed. The MTT formazan product is extracted from the cells by the addition of 200 μl DMSO followed by 50 μl of Sorensen's buffer. The plates are shaken briefly and the absorbance at 570 nm is read using a Molecular Devices UV max plate reader. Curves are fit to the MTT assay data using a four parameter logistic equation, and the data are normalized to fit a 0% to 100% survival scale.

[2] = tested on: HT 29 (Colon adenocarcinoma); test: In vitro cytotoxicity, microculture tetrazolium (MTT) assay, HT29; conditions: further 48 h, Table 1
Protocol: as §1, §2
HT 29 (Colon adenocarcinoma) ATCC catalog #HTB-38.
as §3, §4, §5, §6, §7, §8, §9

[3] = tested on: SKOV3 (Ovarian adenocarcinoma); test: In vitro cytotoxicity, microculture tetrazolium (MTT) assay, SKOV3; conditions: SKOV3 ovarian adenocarcinoma, 48 h with compound, further 48 h, MTT, Table 1
Protocol: as §1, §2
SKOV3 (Ovarian adenocarcinoma)--provided by Dr. V. Ling, Ontario Cancer Institute.
as §3, §4, §5, §6, §7, §8, §9

[4] = tested on: SKVLB (Ovarian; multidrug resistant); test: In vitro cytotoxicity, microculture tetrazolium (MTT) assay, SKVLB; conditions: Homo sapiens; SKVLB multidrug resistant ovarian; 48 h with compound, further 48 h, MTT; Table 1
Protocol: as §1, §2
SKVLB (Ovarian; multidrug resistant)--Dr. V. Ling, Ontario Cancer Institute.
as §3, §4, §5, §6, §7, §8, §9

Lox (Melanoma) = test: In vitro cytotoxicity, microculture tetrazolium (MTT) assay, LOX; conditions: 48 h with compound, further 48 h, Table 1
Protocol: as §1, §2
Lox (Melanoma)--Southern Research Institute.
as §3, §4, §5, §6, §7, §8, §9

[5] = Homo sapiens, HT-29, 48 h with compound

## CC(C)[C@@H]1CC2=C(C(=O)c3ccccc3C2=O)[C@@H](O[C@H]2C[C@H](NC(=O)C(F)(F)F)[C@H](O)[C@H](C)O2)O1 [BCH2053, (1'S, 1R, 3S)-5,10-dioxo-3-isopropyl-1-(2',3',6'-trideoxy-3'-trifluoroacetamido-L-lyxohexopyranose)-3,4,5,10-tetrahydro-1H-naphtho-[2,3-c]-pyran]
[1]; Homo sapiens
  IC50: 12300 nM
[2]; [5]
  IC50: 14000 nM
[3]; Homo sapiens, SK-OV-3
  IC50: 4730 nM
[4]
  IC50: 21200 nM
Lox (Melanoma); Homo sapiens
  IC50: 3250 nM

## COC1OC(C(=O)Nc2ccccc2)=CC2=C1C(=O)c1ccccc1C2=O (stereo not shown) [BCH2044, 1-methoxy-3-N-anilinylcarbonyl-5,10-dioxo-5,10-dihydro-1H-naphtho-[2,3-c]-pyran]
[1]; Homo sapiens
  IC50: 4250 nM
[2]; [5]
  IC50: 194 nM
[3]; Homo sapiens, SK-OV-3
  IC50: 1440 nM
[4]
  IC50: 5110 nM
Lox (Melanoma); Homo sapiens
  IC50: 380 nM

## CC(=O)C1CC2=C(CO1)C(=O)c1ccccc1C2=O (stereo not shown) [BCH1125, Methyl (5,10-dioxo-3,4,5,10-tetrahydronaphtho [2,3-C]pyran-3-yl) ketone]
[1]; Homo sapiens
  IC50: 36400 nM
[2]; [5]
  IC50: > 100000 nM
[3]; Homo sapiens, SK-OV-3
  IC50: > 100000 nM
[4]
  IC50: 92900 nM
Lox (Melanoma); Homo sapiens
  IC50: 52800 nM

## CC(=O)C1CC2=C(C(=O)c3ccccc3C2=O)C(O)O1 (stereo not shown) [BCH1148, Methyl (1-hydroxy-5,10-dioxo-3,4,5,10-tetrahydronaphtho [2,3-C]pyran-3-yl) ketone]
[1]; Homo sapiens
  IC50: > 100000 nM
[2]; [5]
  IC50: > 100000 nM
[3]; Homo sapiens, SK-OV-3
  IC50: > 100000 nM
[4]
  IC50: > 100000 nM
Lox (Melanoma); Homo sapiens
  IC50: > 100000 nM

## COC(=O)[C@]1(C)CC2=C(C(=O)c3ccccc3C2=O)[C@H](O[C@H]2C[C@H](NC(=O)C(F)(F)F)[C@H](O)[C@H](C)O2)O1 [BCH2081, (1'S, 1S, 3S)-1-(3'-trifluoroacetamido-2',3',6'-trideoxy-lyxohexopyranose)-3-methoxycarbonyl-3-methyl-5,10-dioxo-4,5,10-trihydro-1H-naphtho-[2,3-c]-pyran]
[1]; Homo sapiens
  IC50: 7400 nM
[2]; [5]
  IC50: 3800 nM
[3]; Homo sapiens, SK-OV-3
  IC50: 1300 nM
[4]
  IC50: 19000 nM
Lox (Melanoma); Homo sapiens
  IC50: 2700 nM

## C[C@@H]1O[C@@H](O[C@H]2O[C@H](COc3ccccc3)CC3=C2C(=O)c2ccccc2C3=O)C[C@H](NC(=O)C(F)(F)F)[C@@H]1O [BCH2032, (1'S, 1R, 3S)-5,10-dioxo-3-phenyloxymethyl-1-(2',3',6'-trideoxy-3'-trifluoroacetamido-L-lyxohexopyranose)-3,4,5,10-tetrahydro-1H-naphtho-[2,3-c]pyran]
[1]; Homo sapiens
  IC50: 15800 to 23000 nM
[2]; [5]
  IC50: 8490 to 9300 nM
[3]; Homo sapiens, SK-OV-3
  IC50: 6010 to 12000 nM
[4]
  IC50: 17600 to 28000 nM
Lox (Melanoma); Homo sapiens
  IC50: 2830 to 5100 nM

## CC(=O)[C@@H]1CC2=C(C(=O)c3ccccc3C2=O)[C@@H](O[C@@H]2O[C@@H](C)[C@@H](O)[C@@H](NC(=O)C(F)(F)F)C2I)O1 (stereo partly drawn) [BCH2023, (1'S,1R,3S)-methyl-(1-[2',3',6'-trideoxy-2'-iodo-3'-trifluoroacetamido-4'-hydroxy-L-lyxohexopyranose]-5,10-dioxo-3,4,5,10-tetrahydronaphtho-[2,3-c]-pyran-3-yl) ketone]
[1]; Homo sapiens
  IC50: 5500 nM
[2]; [5]
  IC50: 980 nM
[3]; Homo sapiens, SK-OV-3
  IC50: 730 nM
[4]
  IC50: 3200 nM
Lox (Melanoma); Homo sapiens
  IC50: 670 nM

## COC1OC(C(=O)NCCN2CCCC2)=CC2=C1C(=O)c1ccccc1C2=O (stereo not shown) [BCH2839, 1-methoxy-3-[2-(N-pyrrolidinyl)ethylaminocarbonyl]-5,10-dioxo-5,10-dihydro-1H-naphtho-[2,3-c]-pyran hydrochloride salt]
[1]; Homo sapiens
  IC50: 58.1 to 291 nM
[2]; [5]
  IC50: 174 to 490 nM
[3]; Homo sapiens, SK-OV-3
  IC50: 36.5 to 46.1 nM
[4]
  IC50: 224 to 460 nM
Lox (Melanoma); Homo sapiens
  IC50: 262 to 975 nM

## CC(=O)[C@@H]1CC2=C(C(=O)c3ccccc3C2=O)[C@@H](O[C@@H]2O[C@@H](C)[C@@H](O)[C@@H](O)[C@H]2I)O1 [BCH2015, (1'S,1R,3S)-methyl-(1-[2',6'-dideoxy-3',4'-dihydroxy-2'-iodo-L-lyxohexopyranose]-5,10-dioxo-3,4,5,10-tetrahydronaphtho[2,3-c]-pyran-3-yl) ketone]
[1]; Homo sapiens
  IC50: 909 nM
[2]; [5]
  IC50: 557 nM
[3]; Homo sapiens, SK-OV-3
  IC50: 367 nM
[4]
  IC50: 1170 nM
Lox (Melanoma); Homo sapiens
  IC50: 1090 nM

## CC(=O)[C@@H]1CC2=C(C(=O)c3ccccc3C2=O)[C@@H](O[C@H]2C[C@H](NC(=O)C(F)(F)F)[C@H](O)[C@H](C)O2)S1 [BCH2037, (1'S,1S,3S)-1-(3'-trifluoroacetamido-2',3',6'-trideoxy-L-lyxohexopyranose)-5,10-dioxo-3,4,5,10-tetrahydro-1H-naphtho-[2,3-c]-thiopyran]
[1]; Homo sapiens
  IC50: 2200 to 2290 nM
[2]; [5]
  IC50: 1100 to 4250 nM
[3]; Homo sapiens, SK-OV-3
  IC50: 590 to 5090 nM
[4]
  IC50: 3800 to 4730 nM
Lox (Melanoma); Homo sapiens
  IC50: 540 to 816 nM

## COC(=O)[C@@]1(C)CC2=C(C(=O)c3ccccc3C2=O)[C@H](O[C@H]2C[C@H](NC(=O)C(F)(F)F)[C@H](O)[C@H](C)O2)O1 [BCH2076, (1'S,1S,3R)-1-(3'-trifluoroacetamido-2',3',6'-trideoxy-lyxo-L-hexopyranose)-3-methoxycarbonyl-3-methyl-3,4,5,10-tetrahydro-5,10-dioxo-naphtho-[2,3-c]pyran]
[1]; Homo sapiens
  IC50: 6530 nM
[2]; [5]
  IC50: 2600 nM
[3]; Homo sapiens, SK-OV-3
  IC50: 1430 nM
[4]
  IC50: 12400 nM
Lox (Melanoma); Homo sapiens
  IC50: 1800 nM

## C=CCC1CC2=C(C(=O)c3ccccc3C2=O)C(OC2CC(NC(=O)C(F)(F)F)C(O)C(C)O2)O1 (stereo not shown) [BCH1648]
[1]; Homo sapiens
  IC50: 360 nM
[2]; [5]
  IC50: 309 nM
[3]; Homo sapiens, SK-OV-3
  IC50: 51.9 nM
Lox (Melanoma); Homo sapiens
  IC50: 138 nM

## COC1OC(C(=O)NCCCn2ccnc2)=CC2=C1C(=O)c1ccccc1C2=O (stereo not shown) [BCH2157, (3-N-hydrochloroimidazolylpropyl)-1-methoxy-5,10-dioxo-5,10-dihydro-1H-naphtho-[2,3-c]-pyran-3-carboxamide]
[1]
  IC50: 233 nM
[2]; 48 h with compound
  IC50: 1230 nM
[3]
  IC50: 187 nM
Lox (Melanoma)
  IC50: 15.5 nM

## CC(NC(=O)C(F)(F)F)[C@H]1CC2=C(C(=O)c3ccccc3C2=O)[C@H](O[C@H]2C[C@H](O)[C@H](O)[C@H](C)O2)O1 (stereo partly drawn) [BCH2018, (1'S,1S,3R)-3-(trifluoroacetamidoethyl)-5,10-dioxo-1-(2',3',6'-trideoxy-3',4'-dihydroxy-L-lyxohexopyranose)-3,4,5,10-tetrahydro-1H-naphtho-[2,3-c]-pyran]
[1]
  IC50: 8560 nM
[2]; 48 h with compound
  IC50: 14200 nM
[3]
  IC50: 3110 nM
Lox (Melanoma)
  IC50: 2380 nM

## CO[C@@H]1O[C@H](C(=O)O)CC2=C1C(=O)c1ccccc1C2=O (relative stereo) [BCH2119, (1,3-cis)-1-methoxy-3-carboxyl-5,10-dioxo-3,4,5,10-tetrahydro-1H-naphtho-[2,3-c]-pyran]
[1]; Homo sapiens
  IC50: > 100000 nM
[2]; [5]
  IC50: > 100000 nM
[3]; Homo sapiens, SK-OV-3
  IC50: > 100000 nM
[4]
  IC50: > 100000 nM

## CC(=O)C1CC2=C(C(=O)c3ccccc3C2=O)C(O[C@H]2C[C@H](O)[C@H](O)[C@H](C)O2)O1 (mixture of isomers) [BCH2117, (1'S,1S,3R) and (1'S,1R,3S)-methyl-(1-[dideoxy-2',6'-dihydroxy-3',4'-L-lyxohexopyranose]-5,10-dioxo-3,4,5,10-tetrahydronaphtho-[2,3-c]-pyran-3-yl) ketone]
[1]; Homo sapiens
  IC50: 37.4 nM
[2]; [5]
  IC50: 30 nM
[3]; Homo sapiens, SK-OV-3
  IC50: 9.5 nM
Lox (Melanoma); Homo sapiens
  IC50: 73 nM

## CC(=O)[C@H]1CC2=C(C(=O)c3ccccc3C2=O)[C@H](O[C@H]2C[C@H](NC(=O)C(F)(F)F)[C@H](OC(=O)CBr)[C@H](C)O2)O1 [BCH2105, (1'-S, 1-S, 3-R)-methyl-(1-[2',3',4',6' tetradeoxy-3'-trifluoroacetamido-4'-O-(2-bromo-acetyl)-L-lyxopyranose]-5, 10-dioxo-3,4,5,10 tetrahydronaphtho-[2,3-c]pyran-3-yl) ketone]
[1]; Homo sapiens
  IC50: 19 nM
[2]; [5]
  IC50: 6.9 nM
[3]; Homo sapiens, SK-OV-3
  IC50: 3 nM
Lox (Melanoma); Homo sapiens
  IC50: 25 nM
